In patent US20240018129A1, “COMPOUNDS AS PU. 1 INHIBITORS” (PEKING UNIVERSITY, priority 2020, published 2024):

Legend:
[1] = system: CCl4-induced liver fibrosis; assay: CCl4 (higher dose)-induced liver fibrosis model; format: in vivo, mouse; settings: 5mpk or 10mpk i.p. once daily for 6 weeks
Description: Methods: To evaluate the potential therapeutic effects of compound I-1 on liver disorders, including liver fat steatosis and accumulation, nonalcoholic fatty liver disease (NAFLD), nonalcoholic steatosis hepatitis (NASH), and liver fibrosis, three mice models (C57BL/6, male, 8 weeks old) were used. (I) NASH diet (Code.TD.160785, ENVIGO, USA)-induced NASH model: All mice were fed with NASH diet for 10 weeks. Mice were then randomly distributed into three groups, and each group was assigned to be injected daily with vehicle, compound I-1 (2.5mpk or 5mpk, i.p.), or DB1976 (2.5mpk, i.p, as a positive control) for another 6 weeks on continuous NASH diet. A group with normal regular diet was treated with vehicle as health control. (II) High-fat diet (HFD) combinate with CCl4 (lower dose)—induced NASH model. Mice were fed with normal regular diet or HFD (kcal fat 60%—D12492, research diets) for 10 weeks, then the HFD mice were divided into two groups randomly based on the rule of minimum weight differences. Each group was assigned to be injected with CCl4 (25% v/v in olive oil, 0.5 mL/kg body weight) or pure olive oil (i.p.) twice a week for 4 weeks. Compound 1-1 or vehicle (saline) were injected (i.p.) once daily for 4 weeks at the same time with CCl4 under continuous HFD. (III) CCl4 (higher dose)—induced liver fibrosis model. Liver fibrosis was induced by CCl4 injection (20% v/v in olive oil, 10 mL/kg body weight) twice a week for 6 weeks, compound I-1 or vehicle are also injected (i.p.) once daily for 6 weeks at the same time with CCl4 application. Ail the mice in the above-mentioned three models were observed daily. After the last day of treatment of all the models, mice were fasted overnight and euthanized. Serum was collected after centrifuging of the whole blood at 4 degrees, and blood biochemistry parameters were tested through automatic biochemical instrument (BS-240VET, Mindray). Part of liver tissues were fixed with paraformaldehyde, embedded with paraffin, and then sliced for H&E or Sirius red staining to check pathological features, and NAFLD scores. […]

[2] = system: bleomycin-induced pulmonary fibrosis; assay: bleomycin-induced pulmonary fibrosis, preventive and therapeutic models; format: in vivo, mouse
Description: Methods: To evaluate the preventive and therapeutic effects of compound I-1 on pulmonary fibrosis, bleomycin was used to establish two animal models of pulmonary fibrosis with different drug intervention (6-8 weeks, C57BL/6, male). Bleomycin (0.025U, Code.D11063, OKA, China) was injected by a single intratracheal application. Equal volumes of sterilized saline served as a control. (I) Preventive model of bleomycin-induced pulmonary fibrosis. Compounds compound I-1, positive control DB1976, or vehicle (saline) were treated (injected intraperitoneally, i.p.) immediately after single bleomycin injection for 4 weeks (FIG. 4a). (II) Therapeutic model of bleomycin-induced pulmonary fibrosis. Mice were pre-charged with bleomycin for 11 days to induced pulmonary fibrosis, then treated with compounds compound I-1, positive control DB1976, or vehicle (saline) for 17 days, total time is 4 weeks after bleomycin treatment (FIG. 4h). After the last day of treatment of both models, mice were fasted overnight and euthanized. A part of lung was fixed with paraformaldehyde, embedded with paraffin, and then sliced for H&E and Sirius red staining to check pathological features, and Ashcroft scores. Hubner, R. H. et al. Biotechniques 44, 507-511, 514-507, doi:10.2144/000112729 (2008). Another part of lung were collected and stored in −80° C. after liquid nitrogen quick-freezing, RNA isolation (Code.R6934, OMEGA, USA), first cDNA reverse (Code.AT341, TransGen, China), SYBR mix (Code.AQ601, TransGen, China) for Q-PCR (LightCycle96, Roche) to verify several fibrosis-related genes mRNA level, such as, Col1a1 and Col1a2.

N=C(N)c1ccc2nc(-c3ccc(NC(=O)[C@@H]4CCCN4C(=O)[C@@H]4CCCN4C(=O)c4ccc(-c5nc6ccc(C(=N)N)cc6[nH]5)cc4)cc3)[nH]c2c1 [Compound I-1, (S)-1-((4-(6-carbamimidoyl-1H-benzo[d]imidazol-2-yl)benzoyl)-L-prolyl)-N-(4-(6-carbamimidoyl-1H-benzo[d]imidazol-2-yl)phenyl)pyrrolidine-2-carboxamide]
CCl4-induced liver fibrosis [1]: alleviated | collagen deposition and Sirius red-positive area [1]: significantly decreased | inordinate mRNA level and blood biochemistry induced by CCl4 application [1]: ameliorated | pulmonary fibrosis progress (staining, Ashcroft scores, collagen deposition, Col1a1, Col1a2 mRNA) ([2]; preventive model, 5mpk i.p. for 4 weeks after single bleomycin injection): significantly prevented | bleomycin-induced pulmonary fibrosis ([2]; therapeutic model, 11 days after bleomycin then 17 days treatment, 5mpk): reversed and impede
